Among the data in patent US20040039027A1, “Benzimidazole compounds, process for producing the same and use thereof” (priority 2000, published 2004) are half-life values, retold here.

The structures appear in SMILES notation.

A short description of the series: Stability test in artificial gastric juice. The settings on record: artificial gastric juice with acetonitrile, pH 1.2, artificial gastric juice pH ca. 1.2 with acetonitrile, 37° C.; calculated assuming pseudo-first-order decomposition. It is filed as physicochemical. Here is the method:
Stability Test in Artificial Gastric Juice
2-[[[3-Methyl-4-(2,2,2-trifluoroethoxy)-2-pyridyl]methyl]sulfinyl]-1H-benzimidazole(lansoprazole) and the compounds (ca. 1-2 mg) of Examples 1, 2 and 18 were respectively dissolved in acetonitrile (1 mL). To each solution (0.2 mL) were added acetonitrile (1 mL) and artificial gastric juice (3 mL, a solution prepared by dissolving sodium chloride (2.0 g) in hydrochloric acid (7.0 mL) and adding water to the amount of 1000 mL, pH ca. 1.2), and the stability of each compound after preservation at 37° C. was examined. Samples were taken immediately after addition of acetonitrile and artificial gastric juice, and 4, 8, 12, 16 and 20 hours thereafter, analyzed under the following HPLC analysis conditions, and the half-life was calculated on the assumption that the decomposition of the compound was a pseudo-first-order reaction. […]
detection wavelength: UV 285 nm column: YMC Pro C18 75 mm×4.6 mm I.D. mobile phase: the proportion of mobile phase A (0.01 mol/L aqueous ammonium acetate solution) and mobile phase B (acetonitrile) was changed with the lapse of time as in the following.
10 min. from immediately after addition: mobile phase A/mobile phase B=60/40→10/90 10 min. to 15 min.: mobile phase A/mobile phase B=10/90
15.1 min. to 20 min.: mobile phase A/mobile phase B=60/40 flow rate: 1.0 mL/min. column temperature: 25° C.
A word on the half-life: it is the time needed for the level to fall by half in the phase considered. In the case of `Cc1c(OCC(F)(F)F)ccnc1C[S+]([O-])c1nc2ccccc2n1COC(=O)c1ccccc1` (stereo not drawn) [Example 1, [2-[[[3-Methyl-4-(2,2,2-trifluoroethoxy)-2-pyridinyl]methyl]sulfinyl]-1H-benzimidazol-1-yl]methyl benzoate], the half-life is at least 4 h.
The value for `CCCOC(=O)OCn1c([S+]([O-])Cc2nccc(OCC(F)(F)F)c2C)nc2ccccc21` (stereo not drawn) [Example 18, [2-[[[3-Methyl-4-(2,2,2-trifluoroethoxy)-2-pyridinyl]methyl]sulfinyl]-1H-benzimidazol-1-yl]methyl propyl carbonate] was at least 4 h; that for `Cc1c(OCC(F)(F)F)ccnc1C[S+]([O-])c1nc2ccccc2[nH]1` (stereo not drawn) [lansoprazole, 2-[[[3-Methyl-4-(2,2,2-trifluoroethoxy)-2-pyridyl]methyl]sulfinyl]-1H-benzimidazole, reference compound] was under 0.03 h.
